This note sets out measurements from US6943183B2 (Pfizer Inc, priority 2000, dated 2005).

The assay addresses T1, SF9 affinity purified rat FPT (Rattus norvegicus, UniProt Q02293+Q04631).
T1 construct: made in house; host or cells: Sf9 insect cells
As to the kind of experiment: PFT (FPT) inhibitory activity assay, radiolabeled farnesyl pyrophosphate and biotinyl peptide, streptavidin beads. The class given is biochemical. The note with it: HEPES buffer pH 7.4, 30° C., 30 minutes; read-out: FTase IC50. Summed up: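 Rat FPT expressed in SF9 cells was incubated 30 minutes at 30° C. with compound (in 10% DMSO), radiolabeled farnesyl pyrophosphate and biotinylated peptide. Buffer: HEPES pH 7.4, ZnCl2 20 μM, MgCl2 and DTT 5 mM each, 0.1% PEG 8000, 5 mM potassium phosphate (also run without phosphate). Product captured on streptavidin beads in magnesium acetate/H3PO4 stop buffer.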
The IC50 is the concentration needed to halve the response being measured. Consider `CN(C)CCNC(=O)c1ccc(SCc2c(O[C@H](Cn3ccnc3)c3ccccc3)ccc3c2CCCC3=O)cc1` [Compound 177, N-[2-(Dimethylamino)ethyl]-4-{[(2-{[(1S)-2-(1H-imidazol-1-yl)-1-phenylethyl]oxy}-5-oxo-5,6,7,8-tetrahydro-1-naphthalenyl)methyl]sulfanyl}benzamide], for which the IC50 worked out at 3 nM. On to `O=C1CCCc2c1ccc(O[C@H](Cn1ccnc1)c1ccccc1)c2CSC1CCCCC1` [Compound 117], for which the half-inhibitory concentration (IC50) worked out at 1 nM. The value for `O=C(NCc1ccco1)c1ccccc1S(=O)(=O)Cc1c(O[C@H](Cn2ccnc2)c2ccccc2)ccc2c1CCCC2=O` [Compound 231, N-(2-Furylmethyl)-2-{[(2-{[(1S)-2-(1H-imidazol-1-yl)-1-phenylethyl]oxy}-5-oxo-5,6,7,8-tetrahydro-1-naphthalenyl)methyl]sulfonyl}benzamide] was 0.2 nM. Take `O=C(Cc1ccccn1)Nc1c(O[C@H](Cn2ccnc2)c2ccccc2)ccc2c1CCCC2=O` [Compound 39a, N-[2-((S)-2-Imidazol-1-yl-1-phenyl-ethoxy)-5-oxo-5,6,7,8-tetrahydro-naphthalen-1-yl]-2-pyridin-2-yl-acetamide]: the IC50 was determined as 38 nM. The value for `O=C1CCCc2c1ccc(O[C@H](Cn1ccnc1)c1ccccc1)c2CCc1cncc2ccccc12` [Compound 26c, (S)-6-(-2-Imidazol-1-yl-1-phenyl-ethoxy)-5-(2-isoquinolin-4-yl-ethyl)-3,4-dihydro-2H-naphthalen-1-one] was 0.2 nM; that for `O=C1CCC(c2ccccc2)c2cc(OC(Cn3ccnc3)c3ccccc3)ccc21` (racemic) [Compound 48, (±)-6-(2-imidazolyl-O-phenylethoxy)-4-phenyl-2,3,4-trihydronaphthalen-1-one] was 35 nM. Turning to `O=C1CCCc2c1ccc(O[C@H](Cn1ccnc1)c1ccccc1)c2C[S+]([O-])c1ccccc1` (stereo partly shown) [Compound 2], the IC50 was found to be 3 nM.

As to `O=C(NC1CCCC1)c1ccc(SCc2c(O[C@H](Cn3ccnc3)c3ccccc3)ccc3c2CCCC3=O)cc1` [Compound 220, N-Cyclopentyl-4-{[(2-{[(1S)-2-(1H-imidazol-1-yl)-1-phenylethyl]oxy}-5-oxo-5,6,7,8-tetrahydro-1-naphthalenyl)methyl]sulfanyl}benzamide], the 50% inhibitory concentration (IC50) is 0.2 nM.

In the case of `CC[C@H](C)CNC(=O)c1ccc(S(=O)(=O)Cc2c(O[C@H](Cn3ccnc3)c3ccccc3)ccc3c2CCCC3=O)cc1` [Compound 247, 4-{[(2-{[(1S)-2-(1H-Imidazol-1-yl)-1-phenylethyl]oxy}-5-oxo-5,6,7,8-tetrahydro-1-naphthalenyl)methyl]sulfonyl}-N-[(2S)-2-methylbutyl]benzamide], the IC50 came out at 0.2 nM. The value for `O=C(NCc1ccco1)c1cccc(S(=O)(=O)Cc2c(O[C@H](Cn3ccnc3)c3ccccc3)ccc3c2CCCC3=O)c1` [Compound 230, N-(2-Furylmethyl)-3-{[(2-{[(1S)-2-(1H-imidazol-1-yl)-1-phenylethyl]oxy}-5-oxo-5,6,7,8-tetrahydro-1-naphthalenyl)methyl]sulfonyl}benzamide] was 0.2 nM; that for `O=C1CCCc2c1ccc(O[C@H](Cn1ccnc1)c1cccnc1)c2NC(=O)c1nccc2ccccc12` [Compound 63d, Isoquinoline-1-carboxylic acid [2-((S)-2-imidazol-1-yl-1-pyridin-3-yl-ethoxy)-5-oxo-5,6,7,8-tetrahydro-naphthalen-1-yl]-amide] was 0.17 nM. Turning to `O=C1CCCc2c1ccc(O[C@H](Cn1ccnc1)c1ccccc1)c2CCc1ccc(F)cc1` [Compound 30, 6-((1S)-2-Imidazolyl-1-phenylethoxy)-5-[2-(4-fluorophenyl)ethyl]-2,3,4-trihydronaphthalen-1-one], the IC50 stood at 0.2 nM.

Consider `O=C1CCCc2c1ccc(O[C@H](Cn1ccnc1)c1cccnc1)c2CCc1ccccn1` [Compound 63c], for which the IC50 is 0.3 nM. `C=CCNC(=O)c1cccc(SCc2c(O[C@H](Cn3ccnc3)c3ccccc3)ccc3c2CCCC3=O)c1` [Compound 210, N-Allyl-3-{[(2-{[(1S)-2-(1H-imidazol-1-yl)-1-phenylethyl]oxy}-5-oxo-5,6,7,8-tetrahydro-1-naphthalenyl)methyl]sulfanyl}benzamide]: the half-maximal inhibitory concentration (IC50) amounted to 0.2 nM.

In the case of `Cc1ccc(OCc2c(O[C@H](Cn3ccnc3)c3ccccc3)ccc3c2CCCC3=O)cc1` [Compound 100], the IC50 amounted to 4 nM. The value for `COCCNC(=O)c1ccccc1SCc1c(O[C@H](Cn2ccnc2)c2ccccc2)ccc2c1CCCC2=O` [Compound 260, 2-{[(2-{[(1S)-2-(1H-Imidazol-1-yl)-1-phenylethyl]oxy}-5-oxo-5,6,7,8-tetrahydro-1-naphthalenyl)methyl]sulfanyl}-N-(2-methoxyethyl)benzamide] was 0.2 nM; that for `O=C(O)c1ccc(SCc2c(O[C@H](Cn3ccnc3)c3ccccc3)ccc3c2CCCC3=O)cc1` [Compound 162, 4-{[(2-{[(1S)-2-(1H-Imidazol-1-yl)-1-phenylethyl]oxy}-5-oxo-5,6,7,8-tetrahydro-1-naphthalenyl)methyl]sulfanyl}benzoic Acid] was 8 nM; that for `O=C1CCCc2c1ccc(O[C@H](Cn1ccnc1)c1ccccc1)c2COc1ccccc1F` [Compound 101] was 3 nM. Take `O=C1CCCc2c1ccc(O[C@H](Cn1ccnc1)c1ccccc1)c2CNc1ccc(F)cc1` [Compound 151, 5-[(4-Fluoro-phenylamino)-methyl]-6-((S)-2-imidazol-1-yl-1-phenyl-ethoxy)-3,4-dihydro-2H-napthalen-1-one]: the IC50 is 19 nM.

`O=C(O)c1ccccc1S(=O)(=O)Cc1c(O[C@H](Cn2ccnc2)c2ccccc2)ccc2c1CCCC2=O` [Compound 159, 2-{[(2-{[(1S)-2-(1H-Imidazol-1-yl)-1-phenylethyl]oxy}-5-oxo-5,6,7,8-tetrahydro-1-naphthalenyl)methyl]sulfonyl}benzoic Acid]: the IC50 turned out to be 5.5 nM. As for `Cc1cccc(OCc2c(O[C@H](Cn3ccnc3)c3ccccc3)ccc3c2CCCC3=O)c1` [Compound 99], the 50% inhibitory concentration (IC50) came out at 5 nM. With `O=C1CCCc2c1ccc(O[C@H](Cn1ccnc1)c1ccccc1)c2CNc1ccc(Br)cc1` [Compound 150, 5-[(4-Bromo-phenylamino)-methyl]-6-((S)-2-imidazol-1-yl-1-phenyl-ethoxy)-3,4-dihydro-2H-napthalen-1-one] the figure was 16 nM. Consider `CCC(Cn1ccnc1)Oc1ccc2c(c1CS(=O)(=O)c1ccccc1)CCCC2=O` (stereo not shown) [Compound 63n, 6-[1-(1H-Imidazol-1-ylmethyl)propoxy]-5-[(phenylsulfonyl)methyl]-3,4-dihydro-1(2H)-naphthalenone], for which the IC50 amounted to 7 nM.

For `C[C@H](O)CNC(=O)c1cccc(SCc2c(O[C@H](Cn3ccnc3)c3ccccc3)ccc3c2CCCC3=O)c1` [Compound 197, N-[(2S)-2-Hydroxypropyl]-3-{[(2-{[(1S)-2-(1H-imidazol-1-yl)-1-phenylethyl]oxy}-5-oxo-5,6,7,8-tetrahydro-1-naphthalenyl)methyl]sulfanyl}benzamide], the half-inhibitory concentration (IC50) came out at 0.2 nM. With `CNC(=O)c1ccc(CCc2c(O[C@H](Cn3ccnc3)c3ccccc3)ccc3c2CCCC3=O)cc1` [Compound 29], the concentration for half-maximal inhibition (IC50) is 0.1 nM.
